From patent US9359322B2, “C-linked glucuronide of N-(4-hydroxybenzyl) retinone, analogs thereof, and methods of using the same to inhibit neoplastic cell growth” (Wisconsin Alumni Research Foundation, priority 2005, dated 2016)

Assays:
[1] = Body weight change during retinoid feeding; type: in vivo, rat; conditions: relative to baseline body weight over 22 days; 2 mmol/kg diet
Method: Animal Studies: Mammary tumors were induced by intragastric intubation of 50-day old female Sprague-Dawley rats (Harlan Industries, Indianapolis, Ind.) with a single dose of 15 mg DMBA in 1.0 ml of sesame oil per rat. The rats were then maintained on a powdered Teklad 22/5 rodent chow diet (W) 8640 (Harlan Industries, Indianapolis, Ind.), and allowed food and water ad libitum. Four months later, rats which had developed palpable tumors were randomly assigned to the experimental groups (4 rats/group). The retinoid-treated groups were fed diets supplemented with 2 mmol/kg diet of atRA, 4-HPR, or 4-HBRCG, respectively. The retinoids were added to the diet in a vehicle consisting of 25 ml of ethanol: tricaprylin (1:4 v/v) plus 2% (w/v) of α-tocopherol as previously described.^9 This vehicle was also added to the control diet. The additives were blended into the chow diets using a Hobart food mixer. The diets were fed in stainless steel feeders designed with food hoppers. The food was replaced weekly with freshly prepared diets. Food consumption was determined once weekly, and from that the average daily consumption/rat was estimated. These diets were continuously fed for 22 days. Animals were also weighted weekly and monitored for general health status and signs of possible toxicity due to treatment.
Baseline measurement of initial tumor sizes, numbers and rat body weights were determined immediately before commencement of treatments, and final measurements were recorded just prior to sacrifice of the animals. Animals were palpated for tumors twice weekly and tumor diameters were measured weekly by a micrometer caliper. Tumor volumes were calculated using the formula [V= 4/3 πr^3] where r is one-half the mean of the sum of the largest diameter and the axis at right angle to it. All tumors as well as lungs, liver, kidney and femur were excised at the end of the experiment for chemical and histopathological evaluation. Blood samples were also taken from each animal for determination of plasma retinol and triglyceride levels.

[2] = Plasma triglyceride measurement; type: in vivo, rat; conditions: 2 mmol/kg diet, 22 days; FIG. 2A
Method: Plasma Triglyceride Measurement. Bloods were drawn from anesthetized animals in the presence of EDTA as an anticoagulant, and the resulting plasma was used for the measurement of plasma “true” triglyceride levels using a kit from Sigma-Aldrich (Saint Louis, Mo.). Briefly, the total plasma triglyceride and glycerol concentrations were determined, and the glycerol component was subtracted from the total plasma triglyceride measurement to obtain the “true” serum triglyceride concentration.

RARβ = biological target: T1, RARβ (Homo sapiens, UniProt P10826); experiment: Nuclear retinoid receptor binding assay, competition with [3H]all-trans RA; conditions: competition for [3H]atRA; present work
T1 sequence (P10826 1-455): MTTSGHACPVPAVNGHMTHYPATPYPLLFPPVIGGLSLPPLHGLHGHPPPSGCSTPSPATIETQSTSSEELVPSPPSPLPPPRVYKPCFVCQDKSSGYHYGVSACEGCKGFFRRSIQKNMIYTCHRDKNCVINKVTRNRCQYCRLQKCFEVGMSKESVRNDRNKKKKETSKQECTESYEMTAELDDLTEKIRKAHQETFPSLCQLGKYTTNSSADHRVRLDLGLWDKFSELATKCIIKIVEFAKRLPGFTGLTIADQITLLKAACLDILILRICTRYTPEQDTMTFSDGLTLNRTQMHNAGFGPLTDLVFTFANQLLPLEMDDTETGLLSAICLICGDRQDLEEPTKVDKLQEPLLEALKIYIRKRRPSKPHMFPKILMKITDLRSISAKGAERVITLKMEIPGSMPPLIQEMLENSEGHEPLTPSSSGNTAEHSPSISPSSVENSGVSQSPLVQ
Method: (§1) Nuclear Retinoid Receptor Binding Assay. Competition of 3 and 7 and 4-HBRCGlucose with [^3H]-all-trans-RA (4.2-4.6 nM) for binding to RARβ and RARγ and with [^3H]-9-cis RA (1.9 nM) for binding to RXRγ was determined using an in vitro ligand binding assay.^41, 42 [^3H]-all-trans-RA (40.5 Ci/mmole) or [^3H]-9-cis-RA (69.4 Ci/mmole) was added to receptor-containing extracts in the absence and presence of increasing concentrations of competing ligands at 4° C. for 3 hr. A hydroxylapatite (HAP) assay was used to separate ligand bound to receptor from that free in solution, and the radioactivity associated with the HAP pellet was measured by scintillation counting.

RARγ = biological target: T2, RARγ (Homo sapiens, UniProt P13631); experiment: as above; conditions: competition for [3H]atRA; present work
T2 sequence (P13631 1-454): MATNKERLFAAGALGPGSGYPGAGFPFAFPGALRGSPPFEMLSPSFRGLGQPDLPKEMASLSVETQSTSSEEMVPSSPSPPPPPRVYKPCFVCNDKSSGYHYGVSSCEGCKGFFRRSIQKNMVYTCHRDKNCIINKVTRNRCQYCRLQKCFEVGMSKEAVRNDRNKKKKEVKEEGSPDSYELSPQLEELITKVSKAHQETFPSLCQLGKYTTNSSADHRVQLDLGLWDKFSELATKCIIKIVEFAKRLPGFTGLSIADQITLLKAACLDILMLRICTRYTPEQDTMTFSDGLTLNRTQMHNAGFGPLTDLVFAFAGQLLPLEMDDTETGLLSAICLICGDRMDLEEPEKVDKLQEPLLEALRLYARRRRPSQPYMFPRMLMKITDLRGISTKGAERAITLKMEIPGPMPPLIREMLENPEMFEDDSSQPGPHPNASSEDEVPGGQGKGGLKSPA
Method: as §1

RXRγ = biological target: T3, RXRγ (Homo sapiens, UniProt P48443); experiment: Nuclear retinoid receptor binding assay, competition with [3H]9-cis RA; conditions: 4-HBRCG up to 10^−4.5 M; data not shown
T3 sequence (P48443 1-463): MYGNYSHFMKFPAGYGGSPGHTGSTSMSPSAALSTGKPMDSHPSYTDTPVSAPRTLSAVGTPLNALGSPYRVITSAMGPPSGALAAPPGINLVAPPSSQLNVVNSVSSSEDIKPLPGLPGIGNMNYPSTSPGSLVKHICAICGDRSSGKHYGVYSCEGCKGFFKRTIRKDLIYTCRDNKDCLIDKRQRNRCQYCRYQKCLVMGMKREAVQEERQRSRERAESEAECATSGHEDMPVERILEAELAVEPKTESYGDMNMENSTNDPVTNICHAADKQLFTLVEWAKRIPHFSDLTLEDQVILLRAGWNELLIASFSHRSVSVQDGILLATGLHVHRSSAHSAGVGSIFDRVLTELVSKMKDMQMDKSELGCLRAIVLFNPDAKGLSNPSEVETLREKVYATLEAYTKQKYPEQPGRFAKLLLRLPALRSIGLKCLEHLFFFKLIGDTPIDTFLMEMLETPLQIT
Method: as §1

Effect on serum triglyceride concentration [2]: did not cause this undesirable effect | Times less potent than atRA in binding to RARβ (RARβ): 300 times | Times less potent than atRA in binding to RARγ (RARγ): 1400 times | Competition for [3H]9-cis RA binding to RXR (RXRγ): almost no competition
Structure (SMILES): CC1=C(/C=C/C(C)=C/C=C/C(C)=C/C(=O)Cc2ccc(CC3OC(C(=O)O)C(O)C(O)C3O)cc2)C(C)(C)CCC1 [4-HBRCG (7), 2,6-Anhydro-7-deoxy-7-[4-(retinoylmethyl)-phenyl]-L-glycero-L-gulo-heptinoic acid]
% Weight change [1]: +3%
